Test results: US20090062255A1, “TUMOR-TARGETING EVALUATION METHODOLOGY AND COMPOUNDS RELATED THERETO” (THALLION PHARMACEUTICALS INC., priority 2007, published 2009)
Values joined by “and” are separate entries in the source; they are usually repeats but may differ in a detail not shown here. Identical values can stand only once.

Experiments:
[1] = test system: Phospho-ERK (Ras-MAPK signaling pathway); test: ERK phosphorylation ELISA assay (FACE) in MCF-7 cells; assay type: cell-based, human; conditions: 6 hours, EGF 100 ng/mL for 5 min
Description: Human breast tumor MCF-7 cells were plated in 96-well culture plates (10,000 cells per well) in RPMI containing 10% FBS. After an overnight incubation, the medium is changed to low serum conditions (RPMI containing 0.1% FBS) for 18 h. Cells were then treated with ECO-4601 or selected analogs for 6 hours and then stimulated by the addition of EGF (100 ng/mL for 5 min) to induce the MAPK pathway. UO126 is a commercial inhibitor (Promega, Madison, Wis.) of mitogen-activated protein kinase kinase (MEK1/ERK). Following stimulation, cells were rapidly fixed, which preserved activation-specific protein modifications. Each well was then incubated with an antibody specific for Phospho-ERK or total ERK. After an one-hour incubation and several washes, cells were incubated with a secondary HRP-conjugated antibody followed by a developing solution that provided a colorimetric readout that is quantitative and reproducible. The Fast Activated Cell-based ELISA (FACE™) is commercially available (Active Motif, Carlsbad, Calif.).

human MAPK2 (ERK2) = target: T1, human MAPK2 (ERK2) (Homo sapiens, UniProt P28482); test: Upstate Kinase Profiler, MAPK2 (ERK2); assay type: biochemical
T1 construct: purchased Upstate (Kinase Profiler Service; Dundee, UK)
Description: Unlike current Ras signalling pathway inhibitors, ECO-4601 is not a direct kinase inhibitor. This was documented by evaluating the effect of ECO-4601 on human EGFR, c-RAF, MEK1, MAPK1 (ERK1) and MAPK2 (ERK2) kinase-activity (Upstate Kinase Profiler™ Service; Dundee, UK). ECO-4601 was tested at 0.5 μM and 5 μM in a final volume of 25 μL according to standard protocols developed by Upstate Ltd. Briefly, purified recombinant human enzymes were incubated with 25 mM Tris pH 7.5 containing EGTA, a specific substrate and γ-^32P-ATP. The reaction was initiated with MgATP mix and incubated for 40 minutes at RT. The reaction was stopped by the addition of 5 μL of a 3% phosphoric acid solution; aliquots were spotted on filters and counted. Detailed procedures are available on the Millipore Upstate website.

[2] = test system: GL26 glioblastoma cell line; test: MTT cytotoxicity, GL26 cell line; assay type: cell-based; conditions: 96 h, Human
Description: (§1) The cytotoxic activity of Compound 1 was further evaluated using a panel of brain tumor cell lines. This study was performed in collaboration with INSERM (Grenoble, France). Tumor cells (5,000 to 10,000 cells per well depending on their doubling time) were plated in 96-well flat-bottom plates and incubated for 24 hours before treatment. Tumor cells were then incubated for 96 hours with seven different concentrations of Compound 1: […], 0.01, and 0.001 μM. The in vitro cytotoxic activity was determined by a standard MTT assay.

PBR = target: T2, PBR (Rattus norvegicus, UniProt P16257); test: In vivo PBR occupancy by PET (11C-(R)-PK11195) following IV bolus and CIV infusion
T2 construct: from tissue; host or cells: orthotopic rat C6 glioma in Sprague-Dawley rats, in vivo
Description: (R)-1-(2-chlorophenyl)-N-methyl-N-(1-methyl-propyl)-3-isoquinoline carboxamide (R N-desmethyl PK11195), the precursor for the radioisotope-labeled (R) —PK11195, was purchased from ABX (Radeburg, Germany). The synthesis of ^11C-(R)-PK11195 was accomplished by a modification of the method of Camsonne et al. (J. Label. Compd. Radiopharm., 21: 985-991,1984). Briefly, ^11C-methyl iodide (^11C—CH3I) was transferred by a stream of nitrogen gas at a flow rate of 10 ml/min into a reaction medium containing 1 mg or R—N-desmethyl PK11195 previously dissolved in 0.5 mL of dimethylsulfoxide (DMSO) and about 20 mg of sodium hydroxide. The reaction was initiated at room temperature, with a bubbling of the ^11C—CH3I being continued over a 5 minute period. After bubbling was complete, the reaction mixture was left standing for 5 minutes. Purification was performed by high pressure liquid chromatography (HPLC) using a reverse-phase C18 column and a methanol:ammonium formate (20 mM) (80:20) mixture and a mobile phase at a flow rate of 3 mL/min. ^11C—(R) —PK11195 was eluted at 11 minutes and obtained with a specific radioactivity of […].
The above study was repeated but his time ECO-4601 was administered as a bolus push followed by a continuous intra-venous (CIV) infusion of ECO-4601 obtained in the steady-state condition through the second 11C-PK11195 PET scan. […]
To determine a mean tumor binding potential (B.P.) (baseline) and the mean B.P., the simplified reference tissue method was utilized comparing the ratio of tumor to normal brain. As a result, mean tumor binding potential (B.P.) (baseline) was calculated to be 2.19±0.16 (mean±SEM) and the mean B.P. (ECO-4601) was calculated to be 0.14±0.13 (mean±SEM).

[3] = test system: DN oligodendroglioma cell line; test: MTT cytotoxicity, DN cell line; assay type: cell-based; conditions: 96 h, Human
Description: as §1

GTP-bound Ras = test: Ras activation pull-down assay (GST-Raf-RBD) in MCF-7 cells; assay type: cell-based, human; conditions: 6 h treatment, EGF 5 min
Description: Following EGF induction, Ras is activated by a nucleotide exchange reaction that removes GDP and replaces it with GTP. Physiological levels of total cellular GTP-bound Ras can be detected with pull-down assays. MCF-7 cells were treated with increasing concentrations of ECO-4601 for 6 h and the Ras-MAPK signalling pathway was then induced with EGF. After a 5 min induction period, cells were lysed and incubated with a recombinant fusion protein that contains the isolated Ras Binding Domain of c-Raf-1 fused the gluthathione-S-transferese (GST; designated GST-Raf-RBD). The presence of Ras in the GST-Raf-RBD protein complex is resolved by western blotting. As expected, after EGF induction, an increase of Ras-GTP was observed.

in vivo = conditions: CD-1 nu/nu, mouse, iv
[4] = individual rats, IV bolus 30 mg/kg then CIV 5 mg/kg/hour, listed as ECO-4601

T1 sequence (P28482 whole entry): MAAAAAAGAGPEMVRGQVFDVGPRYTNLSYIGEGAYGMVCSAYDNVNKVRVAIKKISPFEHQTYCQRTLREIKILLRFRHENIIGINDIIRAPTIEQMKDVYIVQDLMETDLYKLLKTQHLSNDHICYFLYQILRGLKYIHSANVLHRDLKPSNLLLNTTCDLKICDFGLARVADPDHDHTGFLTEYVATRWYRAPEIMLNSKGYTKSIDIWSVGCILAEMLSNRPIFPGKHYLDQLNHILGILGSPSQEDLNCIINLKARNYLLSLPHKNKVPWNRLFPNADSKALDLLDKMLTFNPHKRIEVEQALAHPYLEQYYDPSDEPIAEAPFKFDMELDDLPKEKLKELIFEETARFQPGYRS

| SMILES | inhibition of phospho-ERK in the FACE ELISA assay [1] | direct inhibition of ERK2 kinase activity (in words) (human MAPK2 (ERK2); 0.5 μM and 5 μM) | activity at 0.5 µM (human MAPK2 (ERK2); MAPK2 (ERK2), 0.5 μM, % of enzyme activity over positive control, read-out: Kinase Activity (%) ± SD) [%] | activity at 5 µM (human MAPK2 (ERK2); MAPK2 (ERK2), 5 μM, % of enzyme activity over positive control, read-out: Kinase Activity (%) ± SD) [%] | IC50 [2] [µM] | mean tumor binding potential (B.P.) after compound (PBR; CIV infusion, mean±SEM, n=6) | reduction of PBR occupancy for 11C-(R)-PK11195 binding, average (PBR; CIV infusion, n=6) [%] | % PBR occupancy (PBR; [4]) | Binding Potential (ECO-4601) (PBR; [4]) | IC50 [3] [nM] | effect on EGF-induced Ras activation (Ras-GTP) (GTP-bound Ras) | MTD (in vivo) [mg/kg] |
| --- | --- | --- | --- | --- | --- | --- | --- | --- | --- | --- | --- | --- |
| CC(C)=CCC/C(C)=C/CC/C(C)=C/CN1C(=O)c2cccc(O)c2Nc2c(O)cc(O)cc21 [Compound 1, 10-farnesyl-4,6,8-trihydroxy-5,10-dihydrodibenzo[b,e][1,4]diazepin-11-one] | inhibit the Ras-MAPK signaling pathway | does not directly inhibit | 116 ± 1 | 110 ± 1 | 8.9 ± 1.1 | 0.14±0.13 | 91.67 | 100% and 30% and 50% | 0 (5×) and 1.81 and 0.84 | 3000 ± 700 | prevented EGF from activating Ras | – |
| CC(C)=CCC/C(C)=C/CC/C(C)=C/CN1C(=O)c2cccc(O)c2N(C)c2c(O)cc(O)cc21 [Compound 2, 10-farnesyl-4,6,8-trihydroxy-5-methyl-5,10-dihydro-dibenzo[b,e][1,4]diazepin-11-one] | – | – | – | – | – | – | – | – | – | – | – | > 100 |
